Source: the supplement of paper PMC10307832

Key:
Assay in all cases: relative viability (nuclei count vs DMSO), 5 days (fraction); higher = more cells survive
[1] = system: HCC-44
Outline: (§1)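 Five library-drug doses in √10 steps were combined with a fixed anchor-drug dose, or a single drug was given alone, by pin tool to lung cancer cell lines in 1536-well plates the day after seeding. Nuclei were stained and counted after 5 days. Relative viability is the nuclei count in treated wells over that in vehicle wells, taken as the median of duplicate plates.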

[2] = system: NCI-H2347
Outline: as §1

[3] = system: NCI-H2126
Outline: as §1

[4] = system: HARA
Outline: as §1

[5] = system: UMC-11
Outline: as §1

[6] = system: HCC-15
Outline: as §1

[7] = system: NCI-H650
Outline: as §1

[8] = system: NCI-H2023
Outline: as §1

[9] = system: PC-14
Outline: as §1

[10] = system: EPLC-272H
Outline: as §1

[11] = system: NCI-H838
Outline: as §1

[12] = system: NCI-H1915
Outline: as §1

[13] = system: NCI-H1651
Outline: as §1

[14] = system: SW 1573
Outline: as §1

[15] = system: LC-2-ad
Outline: as §1

[16] = system: NCI-H2085
Outline: as §1

[17] = system: HOP-62
Outline: as §1

[18] = system: NCI-H1993
Outline: as §1

[19] = system: NCI-H1355
Outline: as §1

[20] = system: COR-L23
Outline: as §1

[21] = system: ABC-1
Outline: as §1

[22] = system: LU99A
Outline: as §1

[23] = system: NCI-H358
Outline: as §1

SMILES: O=c1cc(-c2cccc3c2Sc2ccccc2S3)oc(N2CCOCC2)c1 + CCNC(=O)c1noc(-c2cc(C(C)C)c(O)cc2O)c1-c1ccc(CN2CCOCC2)cc1 [Luminespib] (partner 0.01 µM)
- relative viability ([1]; first compound 0.08 µM): 1.17
- relative viability ([1]; first compound 0.253 µM): 0.971
- relative viability ([1]; first compound 2.53 µM): 0.993
- relative viability ([1]; first compound 8 µM): 1.04
- relative viability ([2]; first compound 0.08 µM): 0.529
- relative viability ([2]; first compound 0.253 µM): 0.358
- relative viability ([2]; first compound 0.8 µM): 0.284
- relative viability ([2]; first compound 2.53 µM): 0.461
- relative viability ([2]; first compound 8 µM): 0.391
- relative viability ([3]; first compound 0.08 µM): 0.791
- relative viability ([3]; first compound 0.253 µM): 1
- relative viability ([3]; first compound 0.8 µM): 0.963
- relative viability ([3]; first compound 2.53 µM): 0.822
- relative viability ([3]; first compound 8 µM): 0.836
- relative viability ([4]; first compound 0.08 µM): 0.708
- relative viability ([4]; first compound 0.253 µM): 0.808
- relative viability ([4]; first compound 0.8 µM): 0.822
- relative viability ([4]; first compound 2.53 µM): 0.576
- relative viability ([4]; first compound 8 µM): 0.834
- relative viability ([5]; first compound 0.08 µM): 1.07
- relative viability ([5]; first compound 0.253 µM): 1.22
- relative viability ([5]; first compound 0.8 µM): 1.19
- relative viability ([5]; first compound 2.53 µM): 1.25
- relative viability ([5]; first compound 8 µM): 1.34
- relative viability ([6]; first compound 0.08 µM): 0.206
- relative viability ([6]; first compound 0.253 µM): 0.207
- relative viability ([6]; first compound 0.8 µM): 0.373
- relative viability ([6]; first compound 2.53 µM): 0.242
- relative viability ([6]; first compound 8 µM): 0.276
- relative viability ([7]; first compound 0.08 µM): 0.711
- relative viability ([7]; first compound 0.253 µM): 0.756
- relative viability ([7]; first compound 0.8 µM): 0.873
- relative viability ([7]; first compound 8 µM): 0.813
- relative viability ([8]; first compound 0.08 µM): 0.58
- relative viability ([8]; first compound 0.253 µM): 0.949
- relative viability ([8]; first compound 0.8 µM): 0.601
- relative viability ([8]; first compound 2.53 µM): 0.856
- relative viability ([8]; first compound 8 µM): 0.499
- relative viability ([9]; first compound 0.08 µM): 0.155
- relative viability ([9]; first compound 0.253 µM): 0.15
- relative viability ([9]; first compound 0.8 µM): 0.165
- relative viability ([9]; first compound 2.53 µM): 0.168
- relative viability ([9]; first compound 8 µM): 0.155
- relative viability ([10]; first compound 0.08 µM): 0.182
- relative viability ([10]; first compound 0.253 µM): 0.405
- relative viability ([10]; first compound 0.8 µM): 0.431
- relative viability ([10]; first compound 2.53 µM): 0.146
- relative viability ([10]; first compound 8 µM): 0.292
- relative viability ([11]; first compound 0.08 µM): 0.277
- relative viability ([11]; first compound 0.253 µM): 0.264
- relative viability ([11]; first compound 0.8 µM): 0.371
- relative viability ([11]; first compound 2.53 µM): 0.313
- relative viability ([11]; first compound 8 µM): 0.23
- relative viability ([12]; first compound 0.08 µM): 0.968
- relative viability ([12]; first compound 0.253 µM): 0.827
- relative viability ([12]; first compound 0.8 µM): 0.911
- relative viability ([12]; first compound 2.53 µM): 0.775
- relative viability ([12]; first compound 8 µM): 0.769
- relative viability ([13]; first compound 0.08 µM): 0.81
- relative viability ([13]; first compound 0.253 µM): 0.93
- relative viability ([13]; first compound 0.8 µM): 0.889
- relative viability ([13]; first compound 2.53 µM): 0.807
- relative viability ([13]; first compound 8 µM): 0.791
- relative viability ([14]; first compound 0.08 µM): 0.213
- relative viability ([14]; first compound 0.253 µM): 0.18
- relative viability ([14]; first compound 0.8 µM): 0.495
- relative viability ([14]; first compound 2.53 µM): 0.194
- relative viability ([14]; first compound 8 µM): 0.237
- relative viability ([15]; first compound 0.08 µM): 0.979
- relative viability ([15]; first compound 0.253 µM): 1.12
- relative viability ([15]; first compound 0.8 µM): 1.13
- relative viability ([15]; first compound 2.53 µM): 0.955
- relative viability ([15]; first compound 8 µM): 0.965
- relative viability ([16]; first compound 0.08 µM): 0.408
- relative viability ([16]; first compound 0.253 µM): 0.526
- relative viability ([16]; first compound 0.8 µM): 0.39
- relative viability ([16]; first compound 2.53 µM): 0.437
- relative viability ([16]; first compound 8 µM): 0.354
- relative viability ([17]; first compound 0.08 µM): 1.06
- relative viability ([17]; first compound 0.253 µM): 1.04
- relative viability ([17]; first compound 0.8 µM): 1.03
- relative viability ([17]; first compound 2.53 µM): 0.983
- relative viability ([17]; first compound 8 µM): 1.02
- relative viability ([18]; first compound 0.08 µM): 0.628
- relative viability ([18]; first compound 0.253 µM): 0.934
- relative viability ([18]; first compound 0.8 µM): 0.778
- relative viability ([18]; first compound 2.53 µM): 0.724
- relative viability ([18]; first compound 8 µM): 0.9
- relative viability ([19]; first compound 0.08 µM): 0.847
- relative viability ([19]; first compound 0.253 µM): 0.641
- relative viability ([19]; first compound 0.8 µM): 0.722
- relative viability ([19]; first compound 2.53 µM): 0.73
- relative viability ([19]; first compound 8 µM): 0.605
- relative viability ([20]; first compound 0.08 µM): 0.863
- relative viability ([20]; first compound 0.253 µM): 0.854
- relative viability ([20]; first compound 0.8 µM): 0.837
- relative viability ([20]; first compound 2.53 µM): 0.78
- relative viability ([20]; first compound 8 µM): 0.703
- relative viability ([21]; first compound 0.08 µM): 0.535
- relative viability ([21]; first compound 0.253 µM): 0.275
- relative viability ([21]; first compound 0.8 µM): 0.91
- relative viability ([21]; first compound 2.53 µM): 0.529
- relative viability ([21]; first compound 8 µM): 0.532
- relative viability ([22]; first compound 0.08 µM): 0.211
- relative viability ([22]; first compound 0.253 µM): 0.219
- relative viability ([22]; first compound 0.8 µM): 0.259
- relative viability ([22]; first compound 2.53 µM): 0.221
- relative viability ([22]; first compound 8 µM): 0.306
- relative viability ([23]; first compound 0.08 µM): 0.154
- relative viability ([23]; first compound 0.253 µM): 0.388
- relative viability ([23]; first compound 0.8 µM): 0.329
- relative viability ([23]; first compound 2.53 µM): 0.375
- relative viability ([23]; first compound 8 µM): 0.292
